Laboratory results from patent US10159640B2, “Prebiotic oral care compositions containing amino acids” (COLGATE-PALMOLIVE COMPANY, priority 2013, dated 2018).

Experiments:
Assay type in all cases: cell-based
Streptococcus salivarius = assay: Metabolic activity, Biolog phenotype microarray; conditions: control without dipeptide = 1
Method: (§1) The extent of metabolic activity of the tested bacteria in the presence of the above-mentioned dipeptides after 24 hours and 48 hours was investigated through a high throughput phenotype microarray system (PM) for microbial cells (Biolog Inc.). Each PM can contain up to 95 different biochemical compounds (e.g. di-peptides) that may act as substrates for bacteria as well as one negative control, not containing the substrates. Microarray plates were used in which the different wells of each plate were pre-loaded (by the manufacturer, Biolog Inc.) with different di-peptides to be tested. Each bacterial species was tested using a separate microarray plate. Thus, a single bacterial species was tested with a variety of dipeptides on each particular plate. The microarrays are based on redox technology, using cell respiration as a universal reporter. Active cell respiration results in the reduction of a tetrazolium dye and in the formation of a strong color—for example, when using the tetrazolium dye “Biolog Redox Dye Mix D”, the color changes from transparent/colourless to purple when the dye is reduced. The observation of this color change indicates which of the substrates improve the metabolic activity and health of the cells. Each bacterial species was collected from blood agar plates (incubated for 48 hours anaerobically at 37° C.) and transferred to an IF-0 Base inoculation fluid (Biolog Inc.), which is a nutritionally poor medium. The resulting cell suspension was adjusted to a transmittance of 42% (relative to the transmittance of the base inoculation fluid with no bacterial species present) at 492 nm using a BioRad SmartSpec 3000 Photometer (the adjustment being effected by adding either further inoculation fluid or further bacteria until the transmittance of 42% was achieved). A 1:5 dilution of this suspension was prepared by mixing 3 mL of the 42% transmittance cell suspension with 15 mL of an inoculation fluid (which inoculation fluid was formed by mixing 11.6 mL sterile water, 62.5 mL IF-0 base inoculation fluid and 0.9 mL of the tetrazolium dye “Biolog Redox Dye mix D”), resulting in a final cell density which was equal to 85% transmittance using a BioRad SmartSpec 3000 Photometer. 680 μL of a 2M sodium succinate/200 μM ferric citrate solution in distilled water was added to 68 mL of the 85% transmittance cell suspension and 100 μL of this mixture was added to each well (the various di-peptides being already present in powder form in the relevant wells of the plate as obtained from the supplier i.e. Biolog Inc.). All plates were incubated in an anaerobic atmosphere at 37° C. Color changes were measured spectrophotometrically at 492 nm (Thermo Scientific Multiskan Ascent) at 24 hrs and 48 hrs using the same plate at both time points. […] After 24 hrs and 48 hrs under continuous shaking in a Multiscan microplate reader, the optical density (OD) of the synthetic medium at 24 hours and 48 hours was measured (using the microplate reader) at a wavelength of 492 nm for each combination of bacterium/dipeptide, and for each of their respective controls (i.e. which contained the particular bacterium but no dipeptide). […] The experiment was carried out three times for each combination of bacterium with dipeptide, with each repeat being carried out on a different day (thus providing three biological replicas). The controls were also carried out three times, as above. The values shown are the average (mean) of the three single values obtained (as detailed above) for each combination of bacterium with dipeptide, at 24 hrs and at 48 hrs.

Streptococcus gordonii = assay: Metabolic activity, Biolog phenotype microarray; conditions: control without dipeptide = 1
Method: as §1

Actinomyces viscosus = assay: Metabolic activity, Biolog phenotype microarray; conditions: control without dipeptide = 1
Method: as §1

Tannerella forsythia = assay: Metabolic activity, Biolog phenotype microarray; conditions: control without dipeptide = 1
Method: as §1

Prevotella intermedia = assay: Metabolic activity, Biolog phenotype microarray; conditions: control without dipeptide = 1
Method: as §1

Fusobacterium nucleatum = assay: Metabolic activity, Biolog phenotype microarray; conditions: control without dipeptide = 1
Method: as §1

Actinomyces naeslundii = assay: Metabolic activity, Biolog phenotype microarray; conditions: control without dipeptide = 1
Method: as §1

Streptococcus sanguinis = assay: Metabolic activity, Biolog phenotype microarray; conditions: control without dipeptide = 1
Method: as §1

Porphyromonas gingivalis = assay: Metabolic activity, Biolog phenotype microarray; conditions: control without dipeptide = 1
Method: as §1

Veillonella parvula = assay: Metabolic activity, Biolog phenotype microarray; conditions: control without dipeptide = 1
Method: as §1

Capnocytophaga sputigena = assay: Metabolic activity, Biolog phenotype microarray; conditions: control without dipeptide = 1
Method: as §1

Streptococcus mitis = assay: Metabolic activity, Biolog phenotype microarray; conditions: control without dipeptide = 1
Method: as §1

[1] = test system: Aggregatibacter actinomycetemcomitans; assay: Metabolic activity, Biolog phenotype microarray; conditions: control without dipeptide = 1
Method: as §1

Streptococcus mutans = assay: Metabolic activity, Biolog phenotype microarray; conditions: control without dipeptide = 1
Method: as §1

Streptococcus sobrinus = assay: Metabolic activity, Biolog phenotype microarray; conditions: control without dipeptide = 1
Method: as §1

[2] = test system: beneficial oral bacteria and pathogenic oral bacteria; assay: Metabolic activity, whole panel: prebiotic effect; conditions: 48 hrs; threshold value of 2
Method: Substrates that were able to increase the metabolic activity of at least one of the above beneficial bacteria while not or only minimally increasing the growth of the pathogenic bacteria are considered to be prebiotic substrates. The extent of metabolic activity of the tested bacteria in the presence of the above-mentioned dipeptides after 24 hours and 48 hours was investigated through a high throughput phenotype microarray system (PM) for microbial cells (Biolog Inc.). Each PM can contain up to 95 different biochemical compounds (e.g. di-peptides) that may act as substrates for bacteria as well as one negative control, not containing the substrates. Microarray plates were used in which the different wells of each plate were pre-loaded (by the manufacturer, Biolog Inc.) with different di-peptides to be tested. Each bacterial species was tested using a separate microarray plate. Thus, a single bacterial species was tested with a variety of dipeptides on each particular plate. The microarrays are based on redox technology, using cell respiration as a universal reporter. Active cell respiration results in the reduction of a tetrazolium dye and in the formation of a strong color—for example, when using the tetrazolium dye “Biolog Redox Dye Mix D”, the color changes from transparent/colourless to purple when the dye is reduced. The observation of this color change indicates which of the substrates improve the metabolic activity and health of the cells. Each bacterial species was collected from blood agar plates (incubated for 48 hours anaerobically at 37° C.) and transferred to an IF-0 Base inoculation fluid (Biolog Inc.), which is a nutritionally poor medium. The resulting cell suspension was adjusted to a transmittance of 42% (relative to the transmittance of the base inoculation fluid with no bacterial species present) at 492 nm using a BioRad SmartSpec 3000 Photometer (the adjustment being effected by adding either further inoculation fluid or further bacteria until the transmittance of 42% was achieved). A 1:5 dilution of this suspension was prepared by mixing 3 mL of the 42% transmittance cell suspension with 15 mL of an inoculation fluid (which inoculation fluid was formed by mixing 11.6 mL sterile water, 62.5 mL IF-0 base inoculation fluid and 0.9 mL of the tetrazolium dye “Biolog Redox Dye mix D”), resulting in a final cell density which was equal to 85% transmittance using a BioRad SmartSpec 3000 Photometer. 680 μL of a 2M sodium succinate/200 μM ferric citrate solution in distilled water was added to 68 mL of the 85% transmittance cell suspension and 100 μL of this mixture was added to each well (the various di-peptides being already present in powder form in the relevant wells of the plate as obtained from the supplier i.e. Biolog Inc.). All plates were incubated in an anaerobic atmosphere at 37° C. Color changes were measured spectrophotometrically at 492 nm (Thermo Scientific Multiskan Ascent) at 24 hrs and 48 hrs using the same plate at both time points. […] After 24 hrs and 48 hrs under continuous shaking in a Multiscan microplate reader, the optical density (OD) of the synthetic medium at 24 hours and 48 hours was measured (using the microplate reader) at a wavelength of 492 nm for each combination of bacterium/dipeptide, and for each of their respective controls (i.e. which contained the particular bacterium but no dipeptide). […] The experiment was carried out three times for each combination of bacterium with dipeptide, with each repeat being carried out on a different day (thus providing three biological replicas). The controls were also carried out three times, as above. The values shown are the average (mean) of the three single values obtained (as detailed above) for each combination of bacterium with dipeptide, at 24 hrs and at 48 hrs. […] This value was selected in order to exclude low-stimulating metabolites and avoid false positive results.

Substance | metabolic activity: OD 492 nm divided by OD of control (Streptococcus salivarius; 24 hrs) | metabolic activity: OD 492 nm divided by OD of control (Streptococcus salivarius; 48 hrs) | metabolic activity: OD 492 nm divided by OD of control (Streptococcus gordonii; 24 hrs) | metabolic activity: OD 492 nm divided by OD of control (Streptococcus gordonii; 48 hrs) | metabolic activity: OD 492 nm divided by OD of control (Actinomyces viscosus; 24 hrs) | metabolic activity: OD 492 nm divided by OD of control (Actinomyces viscosus; 48 hrs) | metabolic activity: OD 492 nm divided by OD of control (Tannerella forsythia; 24 hrs) | metabolic activity: OD 492 nm divided by OD of control (Tannerella forsythia; 48 hrs) | metabolic activity: OD 492 nm divided by OD of control (Prevotella intermedia; 24 hrs) | metabolic activity: OD 492 nm divided by OD of control (Prevotella intermedia; 48 hrs) | metabolic activity: OD 492 nm divided by OD of control (Fusobacterium nucleatum; 24 hrs) | metabolic activity: OD 492 nm divided by OD of control (Fusobacterium nucleatum; 48 hrs) | metabolic activity: OD 492 nm divided by OD of control (Actinomyces naeslundii; 24 hrs) | metabolic activity: OD 492 nm divided by OD of control (Actinomyces naeslundii; 48 hrs) | metabolic activity: OD 492 nm divided by OD of control (Streptococcus sanguinis; 24 hrs) | metabolic activity: OD 492 nm divided by OD of control (Streptococcus sanguinis; 48 hrs) | metabolic activity: OD 492 nm divided by OD of control (Porphyromonas gingivalis; 24 hrs) | metabolic activity: OD 492 nm divided by OD of control (Porphyromonas gingivalis; 48 hrs) | metabolic activity: OD 492 nm divided by OD of control (Veillonella parvula; 24 hrs) | metabolic activity: OD 492 nm divided by OD of control (Veillonella parvula; 48 hrs) | further results
Glu-Trp | 1.0068 | 0.9525 | 1.1537 | 1.4320 | 1.5845 | 2.1016 | 0.9320 | 0.9303 | 1.0170 | 0.9148 | 0.9011 | 0.8364 | 1.1008 | 1.2040 | 0.9983 | 1.0208 | 0.9385 | 0.8770 | 0.8378 | 0.7873 | metabolic activity: OD 492 nm divided by OD of control (Capnocytophaga sputigena; 24 hrs): 1.7818; metabolic activity: OD 492 nm divided by OD of control (Capnocytophaga sputigena; 48 hrs): 1.4150; metabolic activity: OD 492 nm divided by OD of control (Streptococcus mitis; 24 hrs): 0.9457; metabolic activity: OD 492 nm divided by OD of control (Streptococcus mitis; 48 hrs): 0.9396; metabolic activity: OD 492 nm divided by OD of control ([1]; 24 hrs): 0.9494; metabolic activity: OD 492 nm divided by OD of control ([1]; 48 hrs): 0.8665; metabolic activity: OD 492 nm divided by OD of control (Streptococcus mutans; 24 hrs): 0.9492; metabolic activity: OD 492 nm divided by OD of control (Streptococcus mutans; 48 hrs): 1.0170; metabolic activity: OD 492 nm divided by OD of control (Streptococcus sobrinus; 24 hrs): 1.0018; metabolic activity: OD 492 nm divided by OD of control (Streptococcus sobrinus; 48 hrs): 0.9874; prebiotic effects (metabolic activity) [2]: exhibited prebiotic effects
Trp-Leu | 1.0960 | 1.1505 | 1.2109 | 1.2858 | 1.6496 | 2.0774 | 1.0234 | 1.1079 | 1.0663 | 1.0399 | 0.9945 | 1.0254 | 1.1778 | 1.4354 | 0.9310 | 0.9561 | 1.0236 | 1.2127 | 0.8734 | 0.7918 | metabolic activity: OD 492 nm divided by OD of control (Capnocytophaga sputigena; 24 hrs): 0.8565; metabolic activity: OD 492 nm divided by OD of control (Capnocytophaga sputigena; 48 hrs): 0.9454; metabolic activity: OD 492 nm divided by OD of control (Streptococcus mitis; 24 hrs): 1.0445; metabolic activity: OD 492 nm divided by OD of control (Streptococcus mitis; 48 hrs): 1.0524; metabolic activity: OD 492 nm divided by OD of control ([1]; 24 hrs): 1.0357; metabolic activity: OD 492 nm divided by OD of control ([1]; 48 hrs): 1.1455; metabolic activity: OD 492 nm divided by OD of control (Streptococcus mutans; 24 hrs): 1.0145; metabolic activity: OD 492 nm divided by OD of control (Streptococcus mutans; 48 hrs): 1.1337; metabolic activity: OD 492 nm divided by OD of control (Streptococcus sobrinus; 24 hrs): 1.1681; metabolic activity: OD 492 nm divided by OD of control (Streptococcus sobrinus; 48 hrs): 1.2761; prebiotic effects (metabolic activity) [2]: exhibited prebiotic effects
